Data: publication PMC10819521 (Pharmaceutics, 2024)
“And” between values parts separate entries of the source, which are not always exact repeats. Identical values can stand only once.

Columns and labels:
Nrf2-ARE = assay: Nrf2 transcriptional activation, cell-based luciferase assay; details: CD = concentration required to double the specific activity of the luciferase reporter; 24 h; read-out: Nrf2 Induction Potencies CD
Description: Nrf2 transcriptional activation potencies. The assessment of the Nrf2 transcriptional activation potencies of compounds 4a–l was carried out using the previously described method, and detailed information is provided in the supporting information.
Nrf2 transcriptional activation potencies of compounds 4a–l. […] AREc32 cells were exposed to escalating concentrations of each compound (1, 5, 10, 25, 50, 100, 125, and 150 μM) for 24 h to reach the cytotoxic threshold, followed by measurements of luciferase activity. Melatonin was used as a positive control.
4e H Cl H n.i. 76 n.i. […]
Nrf2 transcriptional activation potencies. The stable NRF2/ARE luciferase reporter HEK293 cell line
(Promega) according to the manufacturer's instructions. To assess cellular viability, the stable

[1] = target: T1, Human isolated cathepsin B (Homo sapiens, UniProt P07858); assay: Cathepsin B assay (chromogenic substrate Z-Arg-Arg-pNA); type: biochemical; details: 50 µM inhibitor, 60 min, 100% = no inhibitor, n.i. = residual activity ≥ 95%; for remaining activity at 50 µM: read-out: Percentage residual activity of human cathepsin B
T1 construct: Human isolated cathepsin B (Calbiochem) was assayed spectrophotometrically; purchased Calbiochem
Description: (§1) Cathepsin assays. Assays with human cathepsins B, S, L, and K were carried out as described previously. Stock solutions of substrates and inhibitors were prepared in DMSO. The final DMSO concentration was 2%. All test compounds were investigated in duplicate at a concentration of 50 µM to determine residual activities based on endpoints of substrate consumption after 60 min. Ki values were obtained in duplicate measurements with six different inhibitor concentrations, and 60-min-progress curves were analyzed by linear regression. IC50 values were obtained by non-linear regression using the equation vi = v0/(1 + ([I]/IC50), where vi is the product formation rate at different inhibitor concentrations, v0 is the uninhibited product formation rate, [I] is the inhibitor concentration, and IC50 is the half-maximal inhibitory concentration. IC50 values are transformed to Ki values using the Cheng-Prusoff equation.
(§2) Human isolated cathepsin B (Calbiochem) was assayed spectrophotometrically (Cary 50 Bio, Varian) at 405 nm and 37 °C. Assay buffer was 100 mM sodium phosphate buffer pH 6.0, 100 mM NaCl, 5 mM EDTA, 0.01% Brij 35. For activation, an enzyme stock solution was diluted with assay buffer containing 5 mM DTT and incubated for 30 min at 37 °C. The final concentration of the chromogenic substrate Z-Arg-Arg-pNA was 500 µM (0.45 × Km).
(§3) Cathepsins inhibition. Compounds 4a–l were then evaluated for their ability to inhibit Cat S. Besides Cat S, the set of assays included three related human cathepsins, B, L, and K, all members of the class of lysosomal cysteine proteases (see Table S1 in the Supporting Information). Following reported procedures, [39, 40, 41] percentage or residual activities were determined using chromogenic or fluorogenic peptide substrates, with endpoints measured after 60 min of substrate consumption. To determine Ki values, progress curves were followed over 60 min and analyzed by linear regression. Ki values were then obtained by non-linear regression.

[2] = Oxygen radical absorbance capacity assay (ORAC-FL); details: ORAC-FL method; mean ± SEM
Description: Oxygen radical absorbance capacity assay. The evaluation of the antioxidant activity of compounds 4a–l was carried out using the previously established ORAC-FL method, and detailed information is provided in the supporting information.
Antioxidant assay. The antioxidant assessment was conducted by evaluating the compounds 4a–l through the determination of oxygen radical absorbance capacity (ORAC) using the ORAC-Fluorescein (ORAC-FL) method […]
Oxygen radical absorbance capacity assay.
ORAC-FL method, using fluorescein as a fluorescent probe. Shortly, fluorescein and the antioxidants
2,2'-Azobis(amidinopropane)
(emission wavelength) every minute for 1 hour. […]

[3] = target: T2, Human isolated cathepsin L (Homo sapiens, UniProt P07711); assay: Cathepsin L assay (chromogenic substrate Z-Phe-Arg-pNA); type: biochemical; details: 50 µM inhibitor, 60 min, 100% = no inhibitor, n.i. = residual activity ≥ 95%; for remaining activity at 50 µM: read-out: Percentage residual activity of human cathepsin L
T2 construct: Human isolated cathepsin L (Enzo Life Sciences) was assayed spectrophotometrically; purchased Enzo Life Sciences
T2 sequence (P07711 114-333): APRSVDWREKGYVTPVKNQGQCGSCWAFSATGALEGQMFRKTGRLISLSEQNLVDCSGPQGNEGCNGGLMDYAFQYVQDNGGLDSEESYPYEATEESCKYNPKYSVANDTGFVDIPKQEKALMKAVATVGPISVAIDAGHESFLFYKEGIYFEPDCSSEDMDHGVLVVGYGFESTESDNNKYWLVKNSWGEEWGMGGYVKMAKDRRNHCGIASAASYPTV
Description: as §1
as §2, with “L (Enzo Life Sciences)” for “B (Calbiochem)”, “The assay” for “Assay”, “EDTA, and” for “EDTA,”, “Z-Phe-Arg-pNA” for “Z-Arg-Arg-pNA”, “100” for “500”, “(5.88” for “(0.45”
as §3

[4] = target: T3, Human recombinant cathepsin S (Homo sapiens, UniProt P25774); assay: Cathepsin S assay (fluorogenic substrate Z-Phe-Arg-AMC); type: biochemical; details: for remaining activity at 50 µM: 50 µM inhibitor, 60 min, 100% = no inhibitor, n.i. = residual activity ≥ 95%, read-out: Percentage residual activity of human cathepsin S; for Ki: Ki ± SEM, n.i. = no inhibition, residual activity ≥ 95% at 50 μM, read-out: CatS Ki
T3 construct: purchased Enzo Life Sciences
T3 sequence (P25774 115-331): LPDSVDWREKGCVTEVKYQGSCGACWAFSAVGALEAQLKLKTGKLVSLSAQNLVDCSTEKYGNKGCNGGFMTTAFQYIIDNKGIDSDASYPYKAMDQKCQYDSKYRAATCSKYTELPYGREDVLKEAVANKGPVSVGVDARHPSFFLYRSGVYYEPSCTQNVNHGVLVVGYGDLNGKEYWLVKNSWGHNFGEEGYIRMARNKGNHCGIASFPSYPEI
Description: as §1
Human recombinant cathepsin S (Enzo Life Sciences) was assayed fluorometrically (FLUOstar Optima plate reader, BMG Labtech) at 25 °C with an emission wavelength of 360 nm and an absorption wavelength of 460 nm. The assay buffer was 100 mM sodium phosphate buffer pH 6.0, 100 mM NaCl, 5 mM EDTA, 0.01% Brij 35. For activation, an enzyme stock solution was diluted with assay buffer containing 5 mM DTT and incubated for 60 min at 37 °C.
as §3

[5] = tested on: voltage-gated calcium channels; assay: Calcium channel blockade (FLIPR Calcium 6 indicator, SH-SY5Y cells); type: cell-based, human; details: compounds at 10 µM, KCl/CaCl2 stimulation, n.i. = no inhibition
Description: Calcium channel blockade. Evaluation of the calcium channel blockade of compounds 4a–l was performed using the FLIPR Calcium 6 indicator according to a previously established protocol. Briefly, human neuroblastoma cell line SH-SY5Y seeded out on 96-well plate were treated with fluorescent calcium indicator (FLIPR Calcium 6, Molecular Devices). Cells were incubated with indicator for 2 h at 37 °C, facilitating internalization of the indicator. Subsequently, cells were exposed to nimodipine (10 µM, used as reference inhibitor), DMSO (0.1%, used as vehicle control) or our compounds of interest (10 µM) for 10 min also at 37 °C. Following that, cell fluorescence was recorded using a microplate reader (λEx = 485 nm; λEm = 525 nm). Baseline fluorescence was recorded for 5 s. Afterwards, cells were stimulated by the addition of the solution of KCl and CaCl2 (90 and 5 mM, respectively) in order to induce the opening of voltage-gated calcium channels. An increase in fluorescence of calcium indicator after inducing calcium flux was recorded for another 30 s. Data were collected from three independent experiments, with eight technical replicates per experiment. Fluorescence intensity values were normalized to the baseline recorded before the induction of calcium flux. The percentage of inhibition was calculated as a reduction of normalized calcium flux in comparison with the DMSO vehicle control. Outliers were detected using the Grubbs test, and any outlying values were excluded from further analysis.
Calcium channel blockade. The Ca^2+ channel blocking capacity of compounds 4a–l and nimodipine, used as a standard at a concentration of 10 μM, was evaluated according to an established methodology.

[6] = target: T4, Human recombinant cathepsin K (Homo sapiens, UniProt P43235); assay: Cathepsin K assay (substrate Z-Leu-Arg-AMC); type: biochemical; details: 50 µM inhibitor, 60 min, 100% = no inhibitor, n.i. = residual activity ≥ 95%; for remaining activity at 50 µM: read-out: Percentage residual activity of human cathepsin K
T4 construct: purchased Enzo Life Sciences
T4 sequence (P43235 115-329): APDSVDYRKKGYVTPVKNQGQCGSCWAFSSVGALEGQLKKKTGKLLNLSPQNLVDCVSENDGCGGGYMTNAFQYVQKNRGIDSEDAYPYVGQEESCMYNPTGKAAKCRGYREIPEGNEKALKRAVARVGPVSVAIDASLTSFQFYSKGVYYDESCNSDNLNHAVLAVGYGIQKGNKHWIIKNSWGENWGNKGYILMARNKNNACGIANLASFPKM
Description: as §1
Human recombinant cathepsin K (Enzo Life Sciences) was assayed fluorometrically (FLUOstar Optima plate reader, BMG Labtech) with an emission wavelength of 360 nm and an absorption wavelength of 460 nm. The assay buffer was 100 mM sodium citrate pH 5.0, 100 mM NaCl, 1 mM EDTA, 0.01% CHAPS. For activation, an enzyme stock solution was diluted with assay buffer containing 5 mM DTT and incubated for 30 min at 37 °C. The final concentration of the chromogenic substrate Z-Leu-Arg-AMC was 40 µM (13.33 × Km).
as §3

Row | EC50 (Nrf2-ARE) [µM] | remaining activity at 50 µM [1] [%] | remaining activity at 50 µM [3] [%] | remaining activity at 50 µM [4] [%] | Ki [4] [µM] | remaining activity at 50 µM [6] [%] | Percentage residual activity of human cathepsin K [6] | Percentage residual activity of human cathepsin B [1] | Percentage residual activity of human cathepsin L [3] | Compound | ORAC [2] | Calcium Channel Blockade (%) [5]
1 | 66.4 ± 16.4 |  |  |  |  |  |  |  |  | COc1ccc2[nH]cc(CCNC(C)=O)c2c1 [melatonin, reference compound] |  | 
2 | 96 ± 6.1 | 87 | 91 | 58 | 69.3 ± 5.2 | 65 |  |  |  | C#CCN(C)C(=O)C1=C(C)NC(C)=C(C(=O)N(C)CC#C)C1c1ccccc1Cl [4i, 4-(2-Chlorophenyl)-N2,N3,5,6-tetramethyl-N3,N5-bis(prop-2-yn-1-yl)-1,4-dihydropyridine-3,5-dicarboxamide] | 1.93 Trolox equivalents and 1.93 ± 0.08 Trolox equivalents | 11%
3 | 77.2 ± 7.1 | 90 | 87 | 69 |  | 81 |  |  |  | C#CCN(C)C(=O)C1=C(C)NC(C)=C(C(=O)N(C)CC#C)C1c1cccc(Cl)c1Cl [4j, 4-(2,3-Dichlorophenyl)-N2,N3,5,6-tetramethyl-N3,N5-bis(prop-2-yn-1-yl)-1,4-dihydropyridine-3,5-dicarboxamide] | 1.82 Trolox equivalents and 1.82 ± 0.05 Trolox equivalents | 12%
4 |  | 71 | 86 | 67 |  |  | n.i. |  |  | C#CCNC(=O)C1=C(C)NC(C)=C(C(=O)NCC#C)C1c1ccccc1OC [4f, 4-(2-Methoxyphenyl)-2,6-dimethyl-N3,N5-bis(prop-2-yn-1-yl)-1,4-dihydropyridine-3,5-dicarboxamide] | 1.34 ± 0.20 Trolox equivalents | 19%
5 |  |  | 90 | 77 |  | 62 |  | n.i. |  | C#CCNC(=O)C1=C(C)NC(C)=C(C(=O)NCC#C)C1c1cccc2nonc12 [4d, 4-(2,1,3-Benzoxadiazol-4-yl)-2,6-dimethyl-N3,N5-bis(prop-2-yn-1-yl)-1,4-dihydropyridine-3,5-dicarboxamide] | 1.23 ± 0.23 Trolox equivalents | 10%
6 |  | 71 | 87 | 54 | 55.3 ± 7.4 |  | n.i. |  |  | C#CCNC(=O)C1=C(C)NC(C)=C(C(=O)NCC#C)C1c1cccc(Br)c1 [4h, 4-(3-Bromophenyl)-2,6-dimethyl-N3,N5-bis(prop-2-yn-1-yl)-1,4-dihydropyridine-3,5-dicarboxamide] | 1.28 ± 0.05 Trolox equivalents | 7%
7 | 69.4 ± 9.1 | 86 | 92 | 79 |  | 82 |  |  |  | C#CCN(C)C(=O)C1=C(C)NC(C)=C(C(=O)N(C)CC#C)C1c1ccccc1OC [4k, 4-(2-Methoxyphenyl)-N2,N3,5,6-tetramethyl-N3,N5-bis(prop-2-yn-1-yl)-1,4-dihydropyridine-3,5-dicarboxamide] | n.i. | 14%
8 |  | 88 |  | 70 |  | 90 |  |  | n.i. | C#CCNC(=O)C1=C(C)NC(C)=C(C(=O)NCC#C)C1c1ccccc1Br [4g, 4-(2-Bromophenyl)-2,6-dimethyl-N3,N5-bis(prop-2-yn-1-yl)-1,4-dihydropyridine-3,5-dicarboxamide] | 1.43 ± 0.03 Trolox equivalents | n.i.
9 |  |  |  | 76 |  | 85 |  | n.i. | n.i. | C#CCNC(=O)C1=C(C)NC(C)=C(C(=O)NCC#C)C1c1ccccc1Cl [4e, 4-(2-Chlorophenyl)-2,6-dimethyl-N3,N5-bis(prop-2-yn-1-yl)-1,4-dihydropyridine-3,5-dicarboxamide] | 1.15 ± 0.02 Trolox equivalents | n.i.
